Data reported in patent publication US7534769B2, “Compositions and methods for enhancing delivery of therapeutic agents to cells” (Canji, Inc., priority 1996, dated 2009).

Experiments:
[1] = tested on: bladder, kidney and liver homogenates; test: ACNRB transgene expression by RT-PCR after intravesical administration; assay type: in vivo, mouse; conditions: ACNRB 4×10^10 PN/mL in 22% (v/v) ethanol or 3 mM Big CHAP versus VPBS, 48 hours
Procedure: After the virus was retained in the bladder for 45 minutes, the animals were permitted to recover and void. […] Following amplification (30 cycles) RT-PCR products were separated on a 10% polyacrylamide gel, stained with ethidium bromide, and photographed. […] Untreated samples and bladder samples without the reverse transcriptase (RT) provided controls for contaminating DNA.
The instilled material was retained in the bladder for approximately 45 minutes, and animals were permitted to recover from the procedure. Mice were sacrificed 1, 2, 3, 4, 5, 6, 7, and 14 days after administration (N=4/time) for analysis. Bladders, livers, and kidneys were harvested and snap frozen in liquid nitrogen for subsequent analysis.
After the virus was retained in the bladder for 45 minutes, the animals were permitted to recover. […] Transgene expression was determined using RT-PCR. Tissues were rinsed in RNAse free water, homogenized, digested in Tri-Reagent (Molecular Research Center), and total cellular RNA extracted. […] RT-PCR was performed in the Perkin Elmer 9600 GeneAmp PCR System. Cycling conditions were 10 min at 65° C., 8 min at 50° C., 5 min at 95° C. 32 cycles of PCR were performed, each cycle consisting of 30 sec at 94° C., 30 sec at 58° C., and 30 sec at 72° C. The 32nd cycle included a 10 min elongation step at 72° C. to ensure full extension of incomplete DNA fragments.

pig urothelium = test: rAd-βgal gene transfer in chronically catheterized adult pig bladder; assay type: in vivo
Procedure: To simulate volumes expected for clinical investigation, the 7 mM Big CHAP (CALBIOCHEM®) formulation was tested in a chronically catheterized adult pig model in collaboration with SPRI Drug Safety and Metabolism. rAd-βgal (1×10^11 PN/ml) was formulated in VPBS or 7 mM Big CHAP (CALBIOCHEM®). A volume of 50 ml was injected via the catheter into the bladder of the conscious animals. The instilled material was retained for 2 hr. The animals were sacrificed 48 hr later, and a central section of the bladder was harvested and stained for β-galactosidase expression.

bladder epithelium [2] = test: rAd-βgal gene transfer to bladder epithelium in detergent formulations, Xgal staining score and gross pathology
Procedure: rAd-βgal was formulated in different detergents at their critical micellization concentration to evaluate efficiency of gene transfer to the bladder epithelium. Female rats (about 200 g b/w, Harlan Sprague Dawley) were anesthetized with isoflurane and received a single intravesical administration of rAd-βgal (1×10^11 PN/ml) in different detergent formulations (see Table I). Before instillation, bladders were flushed with PBS and then emptied. rAd-βgal was then instilled in a volume of 0.5 ml. The instilled solution was retained in the bladder for 45 minutes. The bladders were then flushed with PBS, and the animals were permitted to recover from the procedure. 48 hours after administration, the rats were sacrificed, the bladders harvested, and fixed in formalin. After fixation, the bladders were opened longitudinally so that the urothelium was exposed to the chromogen (Xgal), that is converted to a blue color, if reporter gene (β-galactosidase) expression is present. The luminal epithelial surface of the whole bladder was photographed an blue staining scored: + (minimal staining), ++ (moderate staining), +++ intense staining covering the whole bladder epithelial surface.
Briefly, in anaesthetized female rats rAd-βgal (1×10^11 PN/ml) was administered into the bladder via an intravesical catheter. rAd-βgal was formulated in different concentrations of Big CHAP (CALBIOCHEM®). A volume of 0.5 ml was injected and remained instilled in the bladder for 45 minutes. The animals were sacrificed 48 hours later, the bladder fixed in 4% formalin/glutaraldehyde, opened longitudinally, and the β-galactosidase enzyme activity measured using Xgal substrate. The intensity of blue staining correlates with the βgal-transgene expression.
Effects of higher recombinant adenovirus concentrations were also tested. Briefly, in anaesthetized female rats different concentrations of rAd-βgal, formulated in 7 mM Big CHAP (CALBIOCHEM®) were administered into the bladder via an intravesical catheter. The animals were sacrificed 48 hours later, the bladder fixed in 4% formalin/glutaraldehyde, opened longitudinally, and Xgal stained.

bladder tissue = test: Cystitis evaluation of formulations in mice, bladder histopathology; conditions: 80 μL intravesical, 7-day interval; 7 mM Big CHAP, 0.05 mM TRITON X-100 or 22% ethanol
Procedure: The formulations were administered intravesically in a volume of 80 μL, and animals were observed over a 7-day interval. After sacrifice, bladders were paraffin-embedded, sectioned, and stained with hematoxylin and eosin for pathologic evaluation.

bladder tumor tissue = test: Gene transfer to BBN-induced bladder tumors (transitional cell carcinoma model); assay type: in vivo, rat; conditions: rAd-βgal 1×10^11 PN/ml in 4 mM Big CHAP compared to VPBS, 48 hr
Procedure: Because initial investigations focused on animals with intact bladder epithelium, evaluated adenovirus mediated gene transfer in an animal model of transitional cell carcinoma was also studied. Tumors were induced in male Fisher rats by addition of 0.05% BBN in the drinking water for six months. rAd-βgal (1×10^11 PN/ml), formulated in 4 mM Big CHAP (CALBIOCHEM®) or VPBS was instilled into the bladder for 45 minutes by direct injection. β-gal expression was evaluated 48 hr after treatment. Consistent with earlier experiments using non-tumor bearing animals, gene transfer to tumor tissue was improved with the Big CHAP (CALBIOCHEM®) formulation compared to the VPBS formulation (FIG. 10).
Gene transfer of rAd carrying the p53 gene (rAd-p53) (Wills et al., Human Gene Therapy 5:1079-1088 (1994)) was also tested in this animal model of bladder cancer. Briefly, bladder tumors were induced in female Fisher rates (Charles River) by addition of 0.05% BBN (N-butyl-N-N(4-hydroxybutyl)nitrosamine) in the drinking water for three months. rAd-p53 (1×10^11 PN/ml) was formulated in 7 mM Big CHAP (CALBIOCHEM®). Under isoflurane anesthesia a catheter (24G) was inserted into the bladder for administration. rAd-p53 was instilled into the bladder for 45 minutes. The animals were then allowed to recover from anesthesia. […] No staining was detected in tumor tissue from untreated animals.

bladder epithelium [3] = test: Effect of Big CHAP sources, purified Big CHAP and impurities on rAd-βgal gene transfer to bladder epithelium; assay type: in vivo, rat; conditions: Big CHAP at 6 mg/ml
Procedure: Alternate commercial sources of Big CHAP (BC) were tested for the ability to enhance rAd (recombinant adenovirus) mediated gene transfer and expression, essentially according to the method described above in Example 8.
The results are depicted in FIG. 17.
rAd-βgal was formulated in 30 mg/ml of the column chromatography purified material of both BCs and gene transfer to the bladder epithelium tested as described above.
Three impurities of BC (CALBIOCHEM®) were detected by TLC (FIG. 15) and isolated by column chromatography for gene transfer studies. Impurity I and a mixture of impurity II and impurity III were diluted in VPBS (0.6 mg/ml or 6 mg/ml) to test their efficiency in improving rAd mediated gene transfer to the bladder epithelium. […] Positive control formulation (BC, CALBIOCHEM®, upper panel, left), and the negative control formulations (BC—CALBIOCHEM®, column chromatography purified and BC—Sigma) were used at a concentration of 6 mg/ml (upper panel, right).
In this experiment, 10 mg/ml of BC (Sigma, FIG. 20 upper middle panel) was reconstituted with Impurity III (upper right panel), impurity II (lower left panel), or synthesized analog of impurity III (lower right panel). rAd-βgal, 1×10^11 PN/ml, was prepared in the spiked formulations and administered intravesically as described above.
Calbiochem Big CHAP was fractionated by column chromatography to obtain essentially pure impurities “1”, “2”, and “3” for biological testing as well as structural analysis.

C[C@H](CCC(=O)N(CCCNC(=O)[C@H](O)[C@@H](O)[C@H](O)[C@H](O)CO)CCCNC(=O)[C@H](O)[C@@H](O)[C@H](O)[C@H](O)CO)[C@H]1CC[C@H]2[C@@H]3[C@H](O)C[C@@H]4C[C@H](O)CC[C@]4(C)[C@H]3C[C@H](O)[C@]12C [Big CHAP (CALBIOCHEM®), N,N,bis-(3-D-gluconamidopropyl)-cholamide]
ACNRB expression in bladder (RT-PCR) [1]: enhanced expression
transduction of epithelial layers (histologic evaluation) (pig urothelium; 7 mM Big CHAP): transduction of several epithelial layers
intensity of gene expression (β-galactosidase) (pig urothelium; rAd-βgal 1×10^11 PN/ml, 7 mM Big CHAP compared to VPBS, 50 ml, 2 hr, 48 hr): An increase in the intensity of gene expression
cystitis (bladder epithelium [2]; 17.5 mM Big CHAP): induced cystitis in some of the animals tested
gene transfer or expression (bladder epithelium [2]; 17.5 mM Big CHAP): did not notably improve gene transfer or expression
gene transfer (bladder epithelium [2]; 3.5-7 mM Big CHAP): significantly improved gene transfer
cystitis (bladder epithelium [2]; Big CHAP formulation that enhanced gene transfer): minimal cystitis
gene transfer to the bladder epithelium (Table I) (bladder epithelium [2]; detergents at their critical micellization concentration): enhanced gene transfer dramatically
gene transfer to the epithelium, dependence on Big CHAP concentration (bladder epithelium [2]; rAd-βgal 1×10^11 PN/ml, different concentrations of Big CHAP): concentration-dependent increase of gene transfer
β-galactosidase expression, 3.5 mM compared with 7 mM formulation (bladder epithelium [2]; rat, in vivo): similar
macrophage infiltration into the bladder tissue / cystitis (bladder tissue): Only a slight macrophage infiltration
gene transfer to tumor tissue (bladder tumor tissue): improved
rAd mediated gene transfer and expression (bladder epithelium [3]; listed as BC (CALBIOCHEM®)): did substantially enhance gene transfer and expression
rAd mediated gene transfer and expression (bladder epithelium [3]; listed as Big CHAP from CALBIOCHEM®): greater enhancement of gene transfer
